Laboratory results: patent US20240042046A1, “METHODS AND COMPOUNDS FOR MODULATING HUNTINGTON'S DISEASE” (Design Therapeutics, Inc., priority 2022, published 2024)

Tests used:
Assay type in all cases: cell-based
[1] = test system: human HTT mRNA, SNP rs362331 C allele, GM09197 fibroblasts; experiment: Screening of HD molecules in GM09197 fibroblasts, allele-specific HTT mRNA by RT-PCR, C allele; details: 48 hr, C allele, Emin = lowest % HTT observed within compound concentration 0.5 nM to 1000 nM
Procedure: (§1) Molecular Biology Toolkit: • qPCR primer probe sets: • RNA input normalization was assessed utilizing human glyceraldehyde 3-phosphate dehydrogenase (hGAPDH) TaqMan assay (ThermoFisher cat #4351370) or Human Cyclophillin ([…]) TaqMan assay (ThermoFisher cat #4351372) • Total HTT detection was assessed utilizing human Htt TaqMan assay (ThermoFisher cat #4331182) • Allele-specific detection of human HTT expression in HD cells containing the SNP rs362331C/T (Exon 50): for each assay, allele-specific probes to detect the SNP variant contained locked nucleic acid bases to improve allele discrimination, as compared to unmodified DNA probes.
(§2) • qPCR was performed using Agpath ID one-step reverse transcriptase polymerase chain reaction (RT-PCR) reagent
(§3) Screening of HD molecules methods: GM09197 and/or GM04022 fibroblasts were cultured in T175 flasks incubated at 37° C. and 5% CO2. Once confluency was reached, the media was removed, the cells were washed with 1×PBS, and cells were dissociated using TrypLE™ Express Enzyme. Media was added to the enzyme and collected into a 15-mL conical tube and centrifuged at 500×g for 5 minutes to pellet the cells. Media and enzyme were aspirated using a serological pipette. Cells were resuspended in fresh media and counted using a Countess 3 Automated Cell Counter. Cells were plated at a density of 15,000 cells/well in a tissue culture-treated polystyrene 96-well dish and incubated at 37° C. and 5% CO2 overnight. The next day, media was removed using an 8-channel aspirator. 200 μL media/well are added back into the plate. The molecules are formulated to 1 mM and are dispensed using a Multidrop™ Pico 8 Digital Dispenser. After a 48-hour incubation with compounds, media was removed from plates, cells were washed with 1×PBS, and cells were lysed in 40 μL per well guanidinium thiocyanate buffer. RNA was isolated and purified in […] glass fiber column plates using chaotropic salts. Human mtHTT, wtHTT, and GAPDH mRNA were measured via RT-PCR using the ThermoFisher QuantStudio™ 7 Flex System in 384-well format. Results of HTT levels were normalized to GAPDH mRNA levels. Normalized HTT mRNA levels were expressed relative to vehicle-treated samples to assess fold change after molecule treatment.
(§4) Emin for each compound is the lowest % HTT concentration observed within a compound concentration of 0.5 nM to 1000 nM.

[2] = test system: human HTT mRNA, SNP rs362331 T allele, GM09197 fibroblasts; experiment: Screening of HD molecules in GM09197 fibroblasts, allele-specific HTT mRNA by RT-PCR, T allele; details: for Gm09197 Emin 48 hr T Allele (%): Emin = lowest % HTT observed within compound concentration 0.5 nM to 1000 nM; for IC50: Homo sapiens, Fibroblast, 48-hour incubation, T allele HTT mRNA normalized to GAPDH, relative to vehicle
Procedure: as §1, §2, §3, §4

[3] = test system: human HTT mRNA, SNP rs362331 C allele, GM04022 fibroblasts; experiment: Screening of HD molecules in GM04022 fibroblasts, allele-specific HTT mRNA by RT-PCR, C allele; details: Emin = lowest % HTT observed within compound concentration 0.5 nM to 1000 nM
Procedure: as §1, §2
as §3, with “Results of HTT levels were normalized to GAPDH mRNA levels. Normalized HTT mRNA levels were expressed relative to vehicle-treated samples to assess fold change after molecule treatment.” left out

[4] = test system: human HTT mRNA, SNP rs362331 T allele, GM04022 fibroblasts; experiment: Screening of HD molecules in GM04022 fibroblasts, allele-specific HTT mRNA by RT-PCR, T allele; details: for GM04022 Emin 48 hr T Allele: Emin = lowest % HTT observed within compound concentration 0.5 nM to 1000 nM; for IC50: Homo sapiens, Fibroblast, 48-hour incubation, T allele HTT mRNA normalized to GAPDH, relative to vehicle
Procedure: as §1, §2, §3, §4

SMILES	GM 09197 E min 48 Hr C Allele (%) [1]	Gm09197 Emin 48 hr T Allele (%) [2]	GM 04022Emin 48 hr C Allele [3]	GM04022 Emin 48 hr T Allele [4]	IC50 [2] [nM]	IC50 [4] [nM]
Cn1cc(NC(=O)c2nc(NC(=O)CCNC(=O)c3cc(NC(=O)c4nccn4C)cn3C)cn2C)cc1C(=O)NCCCC(=O)Nc1cn(C)c(C(=O)NCCC(=O)Nc2cc(C(=O)Nc3cn(C)c(C(=O)NCCC(=O)NCCOCCOCCOCCOCCOCCOCCOCCOCCOCCOCCOCCOCCOCCOCCOCCOc4ccc(NC(=O)c5cc6c(-c7cc(S(C)(=O)=O)ccc7Oc7ccc(F)cc7F)cn(C)c(=O)c6[nH]5)cc4)n3)n(C)c2)n1 [Compound A-2]	A (A>90%)	C (C<80%)	A (A>90%)	C (C<80%)		
CCNC(=O)c1cc2c(-c3cc(S(C)(=O)=O)ccc3Oc3ccc(OCCOCCOCCOCCOCCOCCOCCOCCOCCNC(=O)CCNC(=O)c4nc(NC(=O)c5cc(NC(=O)CCNC(=O)c6nc(NC(=O)CCCNC(=O)c7cc(NC(=O)c8nc(NC(=O)CCNC(=O)c9cc(NC(=O)c%10nccn%10C)cn9C)cn8C)cn7C)cn6C)cn5C)cn4C)cc3F)cn(C)c(=O)c2[nH]1 [Compound A-3]	A (A>90%)	C (C<80%)	A (A>90%)	C (C<80%)	38.7	36
CCS(=O)(=O)Nc1ccc(Oc2ccc(F)cc2F)c(-c2cn(C)c(=O)c3[nH]c(C(=O)Nc4ccc(OCCOCCOCCOCCOCCOCCOCCOCCOCCNC(=O)CCNC(=O)c5nc(NC(=O)c6cc(NC(=O)CCNC(=O)c7nc(NC(=O)CCCNC(=O)c8cc(NC(=O)c9nc(NC(=O)CCNC(=O)c%10cc(NC(=O)c%11nccn%11C)cn%10C)cn9C)cn8C)cn7C)cn6C)cn5C)cc4)cc23)c1 [Compound A-5]	A (A>90%)	C (C<80%)	A (A>90%)	C (C<80%)	9.8	2
Cc1noc(C)c1-c1ccc2c(c1)nc(CCc1ccc(OCCOCCOCCOCCOCCOCCOCCOCCOCCNC(=O)CCNC(=O)c3nc(NC(=O)c4cc(NC(=O)CCNC(=O)c5nc(NC(=O)CCCNC(=O)c6cc(NC(=O)c7nc(NC(=O)CCNC(=O)c8cc(NC(=O)c9nccn9C)cn8C)cn7C)cn6C)cn5C)cn4C)cn3C)c(Cl)c1)n2C[C@H](C)N1CCOCC1 [Compound A-53]	A (A>90%)	B (B is 90% to 80%)				
Cc1noc(C)c1-c1ccc2c(c1)nc(CCc1ccc(OCCOCCOCCOCCOCCOCCOCCOCCOCCOCCOCCOCCOCCOCCOCCOCCNC(=O)CCNC(=O)c3nc(NC(=O)c4cc(NC(=O)CCNC(=O)c5nc(NC(=O)CCCNC(=O)c6cc(NC(=O)c7nc(NC(=O)CCNC(=O)c8cc(NC(=O)c9nccn9C)cn8C)cn7C)cn6C)cn5C)cn4C)cn3C)c(Cl)c1)n2C[C@H](C)N1CCOCC1 [Compound A-54]	B (B is 90% to 80%)	B (B is 90% to 80%)				
CCNC(=O)c1cc2c(-c3cc(S(C)(=O)=O)ccc3Oc3ccc(OCCOCCOCCOCCOCCNC(=O)CCNC(=O)c4nc(NC(=O)c5cc(NC(=O)CCNC(=O)c6nc(NC(=O)CCCNC(=O)c7cc(NC(=O)c8nc(NC(=O)CCNC(=O)c9cc(NC(=O)c%10nccn%10C)cn9C)cn8C)cn7C)cn6C)cn5C)cn4C)cc3F)cn(C)c(=O)c2[nH]1 [Compound A-55]	A (A>90%)	A (A>90%)				
CC(=O)N1c2ccc(-c3ccn(CCOCCOCCOCCOCCOCCOCCOCCOCCOCCOCCOCCOCCOCCOCCOCCNC(=O)CCNC(=O)c4nc(NC(=O)c5cc(NC(=O)CCNC(=O)c6nc(NC(=O)CCCNC(=O)c7cc(NC(=O)c8nc(NC(=O)CCNC(=O)c9cc(NC(=O)c%10nccn%10C)cn9C)cn8C)cn7C)cn6C)cn5C)cn4C)n3)cc2[C@H](Nc2ccc(C#N)cc2)C[C@@H]1C [Compound A-56]	C (C<80%)	C (C<80%)				
CC(=O)N1c2ccc(-c3ccn(-c4ccc(OCCOCCOCCOCCOCCOCCOCCOCCOCCOCCOCCOCCOCCOCCOCCOCCNC(=O)CCNC(=O)c5nc(NC(=O)c6cc(NC(=O)CCNC(=O)c7nc(NC(=O)CCCNC(=O)c8cc(NC(=O)c9nc(NC(=O)CCNC(=O)c%10cc(NC(=O)c%11nccn%11C)cn%10C)cn9C)cn8C)cn7C)cn6C)cn5C)cc4)n3)cc2[C@H](Nc2ccc(C#N)cc2)C[C@@H]1C [Compound A-58]	B (B is 90% to 80%)	B (B is 90% to 80%)				
CC(=O)N1c2ccc(-c3ccn(-c4ccc(OCCOCCOCCOCCOCCOCCOCCOCCOCCNC(=O)CCNC(=O)c5nc(NC(=O)c6cc(NC(=O)CCNC(=O)c7nc(NC(=O)CCCNC(=O)c8cc(NC(=O)c9nc(NC(=O)CCNC(=O)c%10cc(NC(=O)c%11nccn%11C)cn%10C)cn9C)cn8C)cn7C)cn6C)cn5C)cc4)n3)cc2[C@H](Nc2ccc(C#N)cc2)C[C@@H]1C [Compound A-59]	B (B is 90% to 80%)	B (B is 90% to 80%)				
CCNS(=O)(=O)c1ccc(Oc2ccc(OCCOCCOCCOCCOCCOCCOCCOCCOCCOCCOCCOCCOCCOCCOCCOCCNC(=O)CCNC(=O)c3nc(NC(=O)c4cc(NC(=O)CCNC(=O)c5nc(NC(=O)CCCNC(=O)c6cc(NC(=O)c7nc(NC(=O)CCNC(=O)c8cc(NC(=O)c9nccn9C)cn8C)cn7C)cn6C)cn5C)cn4C)cn3C)cc2F)c(-c2cn(C)c(=O)c3[nH]ccc23)c1 [Compound A-68]	A (A>90%)	C (C<80%)				
CCS(=O)(=O)Nc1ccc(Oc2ccc(F)cc2F)c(-c2cn(C)c(=O)c3[nH]c(C(=O)Nc4ccc(OCCOCCOCCOCCOCCOCCOCCOCCOCCOCCOCCOCCOCCOCCOCCOCCNC(=O)CCNC(=O)c5nc(NC(=O)c6cc(NC(=O)CCNC(=O)c7nc(NC(=O)OCCNC(=O)c8cc(NC(=O)c9nc(NC(=O)CCNC(=O)c%10cc(NC(=O)c%11nccn%11C)cn%10C)cn9C)cn8C)cn7C)cn6C)cn5C)cc4)cc23)c1 [Compound A-72]	B (B is 90% to 80%)	A (A>90%)				
Cc1sc2c(c1C)C(c1ccc(Cl)cc1)=N[C@@H](CC(=O)Nc1ccc(OCCOCCOCCOCCOCCOCCOCCOCCOCCOCCOCCOCCOCCOCCOCCOCCNC(=O)CCNC(=O)c3nc(NC(=O)c4cc(NC(=O)CCNC(=O)c5nc(NC(=O)OCCNC(=O)c6cc(NC(=O)c7nc(NC(=O)CCNC(=O)c8cc(NC(=O)c9nccn9C)cn8C)cn7C)cn6C)cn5C)cn4C)cn3C)cc1)c1nnc(C)n1-2 [Compound A-73]	A (A>90%)	A (A>90%)				
CCS(=O)(=O)Nc1ccc(Oc2ccc(F)cc2F)c(-c2cn(C)c(=O)c3[nH]c(C(=O)Nc4ccc(OCCOCCOCCOCCOCCOCCOCCOCCOCCOCCOCCOCCOCCOCCOCCOCCNC(=O)CCNC(=O)c5nc(NC(=O)c6cc(NC(=O)CCNC(=O)c7nc(NC(=O)NCCNC(=O)c8cc(NC(=O)c9nc(NC(=O)CCNC(=O)c%10cc(NC(=O)c%11nccn%11C)cn%10C)cn9C)cn8C)cn7C)cn6C)cn5C)cc4)cc23)c1 [Compound A-74]	B (B is 90% to 80%)	A (A>90%)				
Cc1sc2c(c1C)C(c1ccc(Cl)cc1)=N[C@@H](CC(=O)Nc1ccc(OCCOCCOCCOCCOCCOCCOCCOCCOCCOCCOCCOCCOCCOCCOCCOCCNC(=O)CCNC(=O)c3nc(NC(=O)c4cc(NC(=O)CCNC(=O)c5nc(NC(=O)NCCNC(=O)c6cc(NC(=O)c7nc(NC(=O)CCNC(=O)c8cc(NC(=O)c9nccn9C)cn8C)cn7C)cn6C)cn5C)cn4C)cn3C)cc1)c1nnc(C)n1-2 [Compound A-75]	A (A>90%)	A (A>90%)				
